Test results from patent US20140120083A1, “TREATMENT OF CANCERS USING PI3 KINASE ISOFORM MODULATORS” (INFINITY PHARMACEUTICALS, INC., priority 2012, published 2014).

Key:
Format in all cases: biochemical
PI3K α = biological target: T1, PI3K α (Homo sapiens, UniProt P42336); test: In vitro IC50, PI3K α
T1 construct: purchased Upstate
From the text: (§1) An exemplary system is PI 3-Kinase (human) HTRF™ Assay from Upstate.

PI3K β = PI3K β (Homo sapiens, UniProt P42338); test: In vitro IC50, PI3K β
From the text: as §1

PI3K δ = PI3K δ (Homo sapiens, UniProt O00329); test: In vitro IC50, PI3K δ; set-up: purchased Upstate
From the text: as §1

PI3K γ = biological target: T2, PI3K γ (Homo sapiens, UniProt P48736); test: In vitro IC50, PI3K γ
T2 construct: purchased Sigma
From the text: as §1

T2 sequence (P48736 whole entry): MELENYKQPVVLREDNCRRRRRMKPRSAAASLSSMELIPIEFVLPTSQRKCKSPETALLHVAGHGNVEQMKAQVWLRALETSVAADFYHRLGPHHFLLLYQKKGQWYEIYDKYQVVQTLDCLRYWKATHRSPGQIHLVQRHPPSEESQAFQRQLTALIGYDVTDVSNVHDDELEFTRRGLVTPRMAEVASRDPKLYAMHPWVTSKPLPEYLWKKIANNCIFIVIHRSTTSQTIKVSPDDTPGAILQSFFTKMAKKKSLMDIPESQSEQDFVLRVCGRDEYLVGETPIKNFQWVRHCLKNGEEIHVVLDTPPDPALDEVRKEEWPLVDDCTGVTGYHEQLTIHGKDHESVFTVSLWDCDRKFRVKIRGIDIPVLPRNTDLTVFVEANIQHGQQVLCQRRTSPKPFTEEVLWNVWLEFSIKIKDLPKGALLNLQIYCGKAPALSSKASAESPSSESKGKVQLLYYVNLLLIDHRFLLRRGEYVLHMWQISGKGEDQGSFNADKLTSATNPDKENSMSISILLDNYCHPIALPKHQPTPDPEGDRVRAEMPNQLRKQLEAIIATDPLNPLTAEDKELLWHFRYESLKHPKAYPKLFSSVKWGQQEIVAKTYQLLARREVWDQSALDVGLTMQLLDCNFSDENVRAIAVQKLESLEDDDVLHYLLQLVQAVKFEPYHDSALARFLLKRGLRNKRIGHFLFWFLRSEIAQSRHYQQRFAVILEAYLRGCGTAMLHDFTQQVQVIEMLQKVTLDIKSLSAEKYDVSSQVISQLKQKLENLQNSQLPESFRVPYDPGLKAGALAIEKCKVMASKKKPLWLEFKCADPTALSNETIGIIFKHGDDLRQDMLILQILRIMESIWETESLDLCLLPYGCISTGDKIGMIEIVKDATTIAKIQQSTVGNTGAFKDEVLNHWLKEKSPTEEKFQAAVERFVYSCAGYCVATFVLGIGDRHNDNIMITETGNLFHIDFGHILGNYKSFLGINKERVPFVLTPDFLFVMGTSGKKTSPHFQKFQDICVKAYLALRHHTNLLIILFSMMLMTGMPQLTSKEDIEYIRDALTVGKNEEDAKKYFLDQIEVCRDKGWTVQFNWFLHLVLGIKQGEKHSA
Chain of PI3K δ (O00329 whole entry): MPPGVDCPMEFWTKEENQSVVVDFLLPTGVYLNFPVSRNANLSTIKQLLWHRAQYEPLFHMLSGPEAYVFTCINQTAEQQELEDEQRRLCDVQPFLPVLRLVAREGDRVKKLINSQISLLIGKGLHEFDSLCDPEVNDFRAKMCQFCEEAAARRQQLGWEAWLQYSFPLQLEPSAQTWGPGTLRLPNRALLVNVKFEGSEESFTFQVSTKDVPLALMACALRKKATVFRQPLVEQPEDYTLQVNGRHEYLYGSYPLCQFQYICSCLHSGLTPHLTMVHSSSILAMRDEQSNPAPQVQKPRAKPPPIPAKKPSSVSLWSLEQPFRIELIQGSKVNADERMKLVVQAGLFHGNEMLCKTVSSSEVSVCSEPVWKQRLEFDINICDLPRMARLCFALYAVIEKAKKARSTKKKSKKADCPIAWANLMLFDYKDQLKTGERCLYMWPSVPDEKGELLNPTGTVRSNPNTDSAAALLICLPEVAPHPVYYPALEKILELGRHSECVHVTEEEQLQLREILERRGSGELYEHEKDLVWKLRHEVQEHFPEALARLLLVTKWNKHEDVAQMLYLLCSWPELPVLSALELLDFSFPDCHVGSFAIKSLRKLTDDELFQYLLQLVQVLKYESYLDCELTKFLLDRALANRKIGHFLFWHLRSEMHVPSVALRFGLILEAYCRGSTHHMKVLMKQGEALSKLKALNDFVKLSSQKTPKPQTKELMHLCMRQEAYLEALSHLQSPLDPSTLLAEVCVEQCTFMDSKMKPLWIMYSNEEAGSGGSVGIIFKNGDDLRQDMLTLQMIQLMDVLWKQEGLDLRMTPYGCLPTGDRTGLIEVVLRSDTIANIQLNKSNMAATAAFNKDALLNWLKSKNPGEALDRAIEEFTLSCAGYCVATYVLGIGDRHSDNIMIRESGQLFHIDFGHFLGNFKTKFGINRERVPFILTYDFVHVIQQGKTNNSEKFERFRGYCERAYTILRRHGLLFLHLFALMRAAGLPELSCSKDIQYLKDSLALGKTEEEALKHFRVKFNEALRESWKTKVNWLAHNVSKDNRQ
Chain of PI3K δ (P27986 whole entry partner): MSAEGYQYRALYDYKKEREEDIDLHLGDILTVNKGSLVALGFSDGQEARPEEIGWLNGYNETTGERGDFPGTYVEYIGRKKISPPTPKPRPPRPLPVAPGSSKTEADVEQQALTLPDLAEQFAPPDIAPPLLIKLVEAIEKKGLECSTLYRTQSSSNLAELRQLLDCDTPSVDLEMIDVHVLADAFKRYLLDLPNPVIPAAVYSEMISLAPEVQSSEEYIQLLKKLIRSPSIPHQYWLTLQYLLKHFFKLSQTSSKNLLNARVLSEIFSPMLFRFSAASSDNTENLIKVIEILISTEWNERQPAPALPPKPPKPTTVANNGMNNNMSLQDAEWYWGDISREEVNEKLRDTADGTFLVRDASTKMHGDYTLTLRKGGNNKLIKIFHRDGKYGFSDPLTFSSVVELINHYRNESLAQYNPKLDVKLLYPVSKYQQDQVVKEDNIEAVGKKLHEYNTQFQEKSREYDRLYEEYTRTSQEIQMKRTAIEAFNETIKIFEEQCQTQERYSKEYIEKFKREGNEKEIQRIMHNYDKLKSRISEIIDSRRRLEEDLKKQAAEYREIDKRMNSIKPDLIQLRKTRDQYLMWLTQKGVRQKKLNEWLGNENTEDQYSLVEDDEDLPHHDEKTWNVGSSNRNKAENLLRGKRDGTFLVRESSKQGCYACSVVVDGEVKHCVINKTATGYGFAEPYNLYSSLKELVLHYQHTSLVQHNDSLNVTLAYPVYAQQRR
T1 sequence (P42336 whole entry): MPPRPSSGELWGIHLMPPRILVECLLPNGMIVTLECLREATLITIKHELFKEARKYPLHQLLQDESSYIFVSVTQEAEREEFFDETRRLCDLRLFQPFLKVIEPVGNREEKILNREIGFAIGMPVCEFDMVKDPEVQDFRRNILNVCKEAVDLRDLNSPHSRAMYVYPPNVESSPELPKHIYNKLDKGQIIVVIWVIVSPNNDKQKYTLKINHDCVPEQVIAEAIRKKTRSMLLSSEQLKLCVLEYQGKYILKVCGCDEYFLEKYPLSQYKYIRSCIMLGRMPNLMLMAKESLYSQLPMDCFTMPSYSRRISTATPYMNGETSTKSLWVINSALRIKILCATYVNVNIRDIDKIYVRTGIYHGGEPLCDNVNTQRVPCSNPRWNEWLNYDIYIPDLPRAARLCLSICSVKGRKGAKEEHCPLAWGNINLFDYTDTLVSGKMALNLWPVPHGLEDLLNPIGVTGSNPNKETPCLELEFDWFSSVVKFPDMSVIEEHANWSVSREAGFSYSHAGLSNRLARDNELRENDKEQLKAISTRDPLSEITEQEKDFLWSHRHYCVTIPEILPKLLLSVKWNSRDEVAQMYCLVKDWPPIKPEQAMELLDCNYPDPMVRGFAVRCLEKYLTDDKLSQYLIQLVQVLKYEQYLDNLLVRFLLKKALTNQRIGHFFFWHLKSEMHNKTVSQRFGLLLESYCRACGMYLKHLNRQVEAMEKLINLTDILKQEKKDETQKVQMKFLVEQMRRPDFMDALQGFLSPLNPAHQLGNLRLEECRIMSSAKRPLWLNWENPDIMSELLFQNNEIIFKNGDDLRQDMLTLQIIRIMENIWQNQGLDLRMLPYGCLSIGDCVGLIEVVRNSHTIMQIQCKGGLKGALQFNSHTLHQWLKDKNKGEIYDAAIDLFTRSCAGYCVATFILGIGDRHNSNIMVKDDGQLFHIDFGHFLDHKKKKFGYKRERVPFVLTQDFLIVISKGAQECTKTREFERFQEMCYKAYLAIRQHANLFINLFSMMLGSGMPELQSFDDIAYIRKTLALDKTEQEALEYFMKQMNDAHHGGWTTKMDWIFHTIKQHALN
T1 sequence (P27986 whole entry partner): as the sequence (P27986 whole entry partner) above
Chain of PI3K β (P42338 whole entry): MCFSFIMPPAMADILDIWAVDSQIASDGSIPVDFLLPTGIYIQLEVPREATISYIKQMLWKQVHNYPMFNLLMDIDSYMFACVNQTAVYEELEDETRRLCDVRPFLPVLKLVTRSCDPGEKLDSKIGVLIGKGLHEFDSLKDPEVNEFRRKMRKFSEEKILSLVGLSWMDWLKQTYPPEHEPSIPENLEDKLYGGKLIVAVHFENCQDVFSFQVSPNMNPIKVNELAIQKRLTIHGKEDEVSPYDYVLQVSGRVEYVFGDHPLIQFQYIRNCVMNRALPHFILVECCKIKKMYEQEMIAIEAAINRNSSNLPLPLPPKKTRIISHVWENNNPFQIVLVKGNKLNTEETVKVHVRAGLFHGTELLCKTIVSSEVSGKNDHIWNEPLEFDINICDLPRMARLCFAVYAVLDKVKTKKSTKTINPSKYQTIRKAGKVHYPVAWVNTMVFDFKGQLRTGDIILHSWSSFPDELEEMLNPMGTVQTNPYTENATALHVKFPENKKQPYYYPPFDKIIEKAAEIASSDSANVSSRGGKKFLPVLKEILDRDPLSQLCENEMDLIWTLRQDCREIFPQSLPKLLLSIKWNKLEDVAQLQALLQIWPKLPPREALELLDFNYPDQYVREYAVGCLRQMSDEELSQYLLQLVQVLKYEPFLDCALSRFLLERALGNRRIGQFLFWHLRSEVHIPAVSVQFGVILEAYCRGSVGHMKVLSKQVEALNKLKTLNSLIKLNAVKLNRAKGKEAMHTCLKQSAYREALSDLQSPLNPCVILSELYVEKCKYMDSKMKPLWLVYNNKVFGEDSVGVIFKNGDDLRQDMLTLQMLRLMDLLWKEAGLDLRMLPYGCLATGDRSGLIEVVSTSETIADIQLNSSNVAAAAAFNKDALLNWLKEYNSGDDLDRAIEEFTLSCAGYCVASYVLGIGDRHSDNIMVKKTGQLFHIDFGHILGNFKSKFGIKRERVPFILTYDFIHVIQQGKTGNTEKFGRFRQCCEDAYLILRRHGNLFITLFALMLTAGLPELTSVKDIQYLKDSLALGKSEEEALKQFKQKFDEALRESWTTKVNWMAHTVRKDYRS

| Structure (SMILES) | IC50 (PI3K α) | IC50 (PI3K β) | IC50 (PI3K δ) | IC50 (PI3K γ) |
| --- | --- | --- | --- | --- |
| Cc1cccc2cc(Cn3nc(-c4cccc(O)c4)c4c(N)ncnc43)n(-c3ccccc3)c(=O)c12 [Compound 146] | > 10 µM | > 10 µM | < 0.1 µM | < 0.1 µM |
| Cc1cccc2cc(C(C)Nc3nc(O)ncc3N)n(-c3ccccc3)c(=O)c12 (stereo not shown) [Compound 321] | > 10 µM | > 10 µM | > 10 µM | > 10 µM |
| Cc1cccnc1-n1c(Cn2nc(-c3cccc(O)c3)c3c(N)ncnc32)cc2cccc(C)c2c1=O [Compound 73] | > 10 µM | > 10 µM | < 0.1 µM | < 1 µM |
| Cc1cccc2cc(Cn3nc(I)c4c(N)ncnc43)n(C(C)C)c(=O)c12 [Compound 60] | > 10 µM | > 10 µM | < 0.1 µM | > 10 µM |
| Cc1ccccc1-n1c(Cn2nc(/C=C/C(=O)N3CCOCC3)c3c(N)ncnc32)cc2cccc(C)c2c1=O [Compound 192] | > 10 µM | > 10 µM | < 1 µM | > 10 µM |
| Cc1ccccc1-n1c(Cn2nc(-c3cccc(F)c3)c3c(N)ncnc32)cc2cccc(C)c2c1=O [Compound 41] | > 10 µM | > 10 µM | < 10 µM | < 1 µM |
| Cc1ccccc1-n1c(Cn2nc(-c3ccc4ncnc(N)c4c3)c3c(N)ncnc32)cc2cccc(C)c2c1=O [Compound 152] | < 10 µM | > 10 µM | < 0.1 µM | < 0.1 µM |
| Cc1cccnc1-n1c(Cn2nc(-c3ccc(Cl)c(O)c3)c3c(N)ncnc32)cc2cccc(C)c2c1=O [Compound 72] | > 10 µM | < 10 µM | < 0.1 µM | < 0.1 µM |
| Cc1ccccc1-n1c(Cn2nc(-c3ccc4nc(N)ncc4c3)c3c(N)ncnc32)cc2cccc(C)c2c1=O [Compound 150] | < 0.1 µM | < 1 µM | < 0.1 µM | < 0.1 µM |
| Cc1ccccc1-n1c(Cn2nc(-c3ccc(O)cc3)c3c(N)ncnc32)cc2cccc(C)c2c1=O [Compound 36] | > 10 µM | > 10 µM | < 1 µM | < 0.1 µM |
| Cc1cccc2cc(Cn3nc(-c4ccc5sc(N)nc5c4)c4c(N)ncnc43)n(-c3ccccc3)c(=O)c12 [Compound 277] | < 1 µM | < 1 µM | < 0.1 µM | < 0.1 µM |
| Cc1cccc2cc(Cn3nc(C#C[C@@H](C)O)c4c(N)ncnc43)n(C3CCCC3)c(=O)c12 [Compound 65] | > 10 µM | < 10 µM | < 0.1 µM | < 10 µM |
| Cc1cccc2cc(Cn3nc(-c4cccc(O)c4)c4c(N)ncnc43)n(C3CCCC3)c(=O)c12 [Compound 58] | > 10 µM | < 10 µM | < 0.1 µM | < 1 µM |
| Cc1cccc2cc(Cn3nc(-c4cccc(F)c4)c4c(N)ncnc43)n(-c3ccccc3F)c(=O)c12 [Compound 40] | > 10 µM | > 10 µM | < 10 µM | < 10 µM |
| Cc1cccc2cc([C@H](C)Nc3ncnc4[nH]cnc34)n(-c3cccc(F)c3)c(=O)c12 [Compound 290] | > 10 µM | < 1 µM | < 0.1 µM | < 0.1 µM |
| COc1cc(-c2nn(Cc3cc4cccc(C)c4c(=O)n3-c3ccccc3C)c3ncnc(N)c23)ccc1Cl [Compound 21] | > 10 µM | > 10 µM | < 1 µM | < 0.1 µM |

| Structure (SMILES) | IC50 (PI3K α) | IC50 (PI3K β) | IC50 (PI3K δ) | IC50 (PI3K γ) |
| --- | --- | --- | --- | --- |
| Cc1cccc2cc(Cn3nc(-c4cccc(O)c4)c4c(N)ncnc43)n(C3CC3)c(=O)c12 [Compound 102] | < 1 µM | < 1 µM | < 0.1 µM | < 0.1 µM |
| Cc1cccc2cc(Cn3nc(C#C[C@@H](C)O)c4c(N)ncnc43)n(C(C)C)c(=O)c12 [Compound 61] | > 10 µM | < 10 µM | < 0.1 µM | < 10 µM |
| CCC(Nc1ncnc2[nH]cnc12)c1cc2cccc(C)c2c(=O)n1-c1ccccc1 (stereo not shown) [Compound 211] | > 10 µM | < 10 µM | < 0.1 µM | < 0.1 µM |
| Cc1cccc2cc(Cn3nc(I)c4c(N)ncnc43)n(C3CCCCC3)c(=O)c12 [Compound 87] | > 10 µM | > 10 µM | < 1 µM | < 0.1 µM |
| Cc1cccc2cc([C@H](C)Nc3cc(N)nc(Cl)n3)n(C3CC3)c(=O)c12 [Compound 283] | > 10 µM | > 10 µM | > 10 µM | > 10 µM |
| Cc1ccccc1-n1c(Cn2nc(-c3ccc(Cl)c(O)c3)c3c(N)ncnc32)cc2ccccc2c1=O [Compound 52] | > 10 µM | > 10 µM | < 0.1 µM | < 0.1 µM |
| Cc1ccccc1-n1c(Cn2nc(CN3CCOCC3)c3c(N)ncnc32)cc2cccc(C)c2c1=O [Compound 194] | > 10 µM | > 10 µM | < 10 µM | > 10 µM |
| Cc1cccc2cc([C@H](C)Nc3nc(N)ncc3C(F)(F)F)n(-c3ccccc3)c(=O)c12 [Compound 324] | > 10 µM | < 10 µM | < 0.1 µM | < 0.1 µM |
| Cc1cccc2cc([C@H](C)Nc3cc(N)nc(N)n3)n(C3CC3)c(=O)c12 [Compound 284] | > 10 µM | > 10 µM | < 10 µM | < 10 µM |
| Cc1cccc2cc(Cn3nc(Br)c4c(N)ncnc43)n(-c3ccccc3F)c(=O)c12 [Compound 35] | > 10 µM | > 10 µM | < 1 µM | < 10 µM |
| Cc1ccccc1-n1c(Cn2nc(-c3ccn[nH]3)c3c(N)ncnc32)cc2cccc(C)c2c1=O [Compound 182] | > 10 µM | > 10 µM | < 1 µM | < 0.1 µM |
| Cc1cccc2cc(Cn3nc(-c4cn[nH]c4)c4c(N)ncnc43)n(-c3ccccc3C(F)(F)F)c(=O)c12 [Compound 214] | > 10 µM | < 10 µM | < 0.1 µM | < 1 µM |
| COc1cc(-c2nn(Cc3cc4cccc(C)c4c(=O)n3-c3ccccc3F)c3ncnc(N)c23)ccc1Cl [Compound 22] | > 10 µM | > 10 µM | < 10 µM | < 1 µM |
| Cc1cccc2cc(Cn3nc(-c4ccc(F)c(O)c4)c4c(N)ncnc43)n(C3CCCC3)c(=O)c12 [Compound 64] | > 10 µM | > 10 µM | < 0.1 µM | < 0.1 µM |
| CC(Nc1ncnc2[nH]cnc12)c1cc2ccccc2c(=O)n1-c1ccccc1 (stereo not shown) [Compound 220] | > 10 µM | < 10 µM | < 0.1 µM | < 1 µM |
| Cc1cccc2cc([C@H](C)Nc3nc(N)ncc3Cl)n(-c3ccccc3)c(=O)c12 [Compound 249] | > 10 µM | < 10 µM | < 0.1 µM | < 0.1 µM |

Next, values leading:

| IC50 (PI3K α) | IC50 (PI3K β) | IC50 (PI3K δ) | IC50 (PI3K γ) | Structure (SMILES) |
| --- | --- | --- | --- | --- |
| > 10 µM | > 10 µM | < 0.1 µM | < 10 µM | Cc1ccccc1-n1c(Cn2nc(C#C[C@@H](C)O)c3c(N)ncnc32)cc2cccc(C)c2c1=O [Compound 37] |
| > 10 µM | < 10 µM | < 0.1 µM | < 0.1 µM | Cc1ccccc1-n1c(Cn2nc(-c3ccc(O)c(Cl)c3)c3c(N)ncnc32)cc2cccc(C)c2c1=O [Compound 25] |
| > 10 µM | < 10 µM | < 10 µM | > 10 µM | Cc1cccc2cc([C@H](C)Nc3nc(N)ncc3F)n(C3CC3)c(=O)c12 [Compound 281] |
| > 10 µM | > 10 µM | < 1 µM | < 0.1 µM | Cc1cccc2cc(Cn3nc(-c4ccc(O)c(Cl)c4)c4c(N)ncnc43)n(-c3ccccc3F)c(=O)c12 [Compound 26] |
| < 1 µM | < 0.1 µM | < 0.1 µM | < 0.1 µM | Cc1cccc2cc([C@H](C)Nc3ncnc4[nH]cnc34)n(-c3ccc(F)cc3)c(=O)c12 [Compound 260] |
| > 10 µM | > 10 µM | < 10 µM | < 1 µM | Cc1cccc2cc(Cn3nc(-c4ccc(O)cc4)c4c(N)ncnc43)n(-c3ccccc3F)c(=O)c12 [Compound 46] |
| > 10 µM | > 10 µM | < 0.1 µM | < 0.1 µM | Cc1ccccc1-n1c(Cn2nc(-c3ccc(F)c(O)c3)c3c(N)ncnc32)cc2ccccc2c1=O [Compound 54] |
| > 10 µM | > 10 µM | < 0.1 µM | < 1 µM | Cc1cccc2cc(Cn3nc(-c4cccc(O)c4)c4c(N)ncnc43)n(-c3ccccc3OCCN3CCOCC3)c(=O)c12 [Compound 109] |
| > 10 µM | > 10 µM | < 1 µM | < 1 µM | Cc1cccc2cc([C@H](C)Nc3cc(N)nc(N)n3)n(-c3ccccc3)c(=O)c12 [Compound 286] |
| > 10 µM | > 10 µM | < 0.1 µM | < 0.1 µM | CCc1ccccc1-n1c(Cn2nc(-c3cccc(O)c3)c3c(N)ncnc32)cc2cccc(C)c2c1=O [Compound 88] |
| < 10 µM | < 1 µM | < 0.1 µM | < 0.1 µM | Cc1cccc2cc(Cn3nc(-c4cc(O)cc(F)c4)c4c(N)ncnc43)n(-c3ccccc3O)c(=O)c12 [Compound 90] |
| > 10 µM | < 10 µM | < 1 µM | < 1 µM | COc1cccc(-c2nn(Cc3cc4cccc(C)c4c(=O)n3-c3ccccc3C)c3ncnc(N)c23)c1 [Compound 106] |
| < 1 µM | < 10 µM | < 0.1 µM | < 0.1 µM | Cc1cccc2cc(Cn3nc(-c4cc(O)cc(F)c4)c4c(N)ncnc43)n(-c3ccccc3)c(=O)c12 [Compound 147] |
| > 10 µM | > 10 µM | < 1 µM | < 10 µM | Cc1ccccc1-n1c(Cn2nc(I)c3c(N)ncnc32)cc2cccc(F)c2c1=O [Compound 42] |
